Consider seven compounds from ChEMBL document CHEMBL1201862, “PubChem BioAssay data set” (2004).

The structures appear in SMILES notation.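 Dose response: 5 concentrations. Exposure: 48 h. Format: 96-well plates. Endpoint: linear interpolation; highest concentration if not reached. GI50 marks 50% less growth.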 Active and inactive are the calls of the source. Cut-off read from the data, not from the text of the source: active = GI50 up to about 1.1 µM and inactive = higher. Bounds are passed on as bounds.

Holding throughout (test): NCI anticancer screen, dose series, 48 h
In assay [1] the test system is 786-0.
The subject of assay [2] is CAKI-1.
Assay [3] concerns HCT-116.
Assay [4] has as its system HOP-62.
The test system of assay [5] is IGROV-1.
Assay [6] concerns K562.
The subject of assay [7] is MDA-MB-435.
For assay [8], the system named is MDA-N.
The test system of assay [9] is NCI-H226.
Assay [10] relates to NCI-H23.
Assay [11] relates to NCI-H522.
The test system of assay [12] is OVCAR-3.
The test system of assay [13] is RPMI-8226.
Assay [14] relates to SF-268.
The subject of assay [15] is SF-295.
The test system of assay [16] is SK-MEL-28.
Assay [17] relates to SK-MEL-2.
The subject of assay [18] is SNB-19.
Assay [19] concerns SNB-75.
Assay [20] relates to UACC-62.

Consider `Nn1c(S)nnc1C12CC3CC(CC(C3)C1)C2`, for which the GI50 in [1], in assay [2], in [3], in [4], in assay [5] and in assay [6] was > 100 µM (inactive) in each case. The GI50 in assay [7], in assay [8], in assay [9], in [10], in [11] and in [12] was > 100 µM (inactive) throughout. Moreover, the GI50 in assay [13], in assay [14], in assay [15], in assay [16], in [17] and in [18] was > 100 µM (inactive) each time. Moreover, the GI50 in assay [19] and in assay [20] was > 100 µM (inactive) in each case.

As for `CC(C)c1ccc2c(c1)[C@@]1(C)CC[C@H](C)C(C)(C)C1CC2` (stereo not given in full), the GI50 in assay [1] was 18.1 µM (inactive); in assay [2], 23.9 µM (inactive); in [3], 18.4 µM (inactive); in assay [4] it was 18.8 µM (inactive); in [5] it was 51.8 µM (inactive); in [6], 32.2 µM (inactive). Further, the GI50 in assay [7] was 16.9 µM (inactive); in [8] it was 26.1 µM (inactive); in [9], 17.3 µM (inactive); in [10], 18.8 µM (inactive); in assay [11] it was 27.4 µM (inactive); in [12] it was 25.4 µM (inactive). Also, the GI50 in assay [13] was 18.4 µM (inactive); in assay [14], 19.1 µM (inactive); in assay [15], 20.6 µM (inactive); in assay [16] it was 17 µM (inactive); in assay [17] it was 26.4 µM (inactive); in assay [18], 19.7 µM (inactive). In addition, the GI50 in assay [19] was 17.2 µM (inactive); in [20], 16.2 µM (inactive).

`O=C(O)Cc1ccccc1` [PHENYLACETIC ACID]: the GI50 in [1], in assay [2], in assay [3], in [4], in assay [5] and in assay [6] was > 100 µM (inactive) in each case. The GI50 in assay [7], in assay [8], in assay [9], in [10], in [11] and in assay [12] was > 100 µM (inactive) in each case. Further, the GI50 in [13] is > 100 µM (inactive); in assay [14] it was > 100 µM (inactive); in assay [15] it was 841 µM (inactive); in assay [16], > 100 µM (inactive); in assay [17] it was > 100 µM (inactive); in assay [18] it was > 100 µM (inactive). The GI50 in assay [19] and in assay [20] was > 100 µM (inactive) each time.

In the case of `N#CCCN(CCC#N)c1ccc(/C=C2\SC(=S)NC2=O)cc1`, the GI50 in assay [1] is 30 µM (inactive); in assay [2], 23 µM (inactive); in assay [3], > 100 µM (inactive); in assay [4], 35.2 µM (inactive); in assay [5], > 100 µM (inactive); in [6], > 100 µM (inactive). Further, the GI50 in assay [7], in assay [8], in assay [9], in [10], in assay [11] and in [12] was > 100 µM (inactive) in each case. For the same compound, the GI50 in assay [13] was > 100 µM (inactive); in [14], > 100 µM (inactive); in assay [15], 39.4 µM (inactive); in assay [16], > 100 µM (inactive); in [17] it was > 100 µM (inactive); in assay [18], 33.9 µM (inactive). The GI50 in [19] was 50.2 µM (inactive); in [20] it was > 100 µM (inactive).

Consider `CC(O)c1cc2c(s1)C(=O)c1c(C(C)O)csc1C2=O` (stereo not given), for which the GI50 in assay [1] was 0.392 µM (active); in [2], 0.382 µM (active); in assay [3], 0.14 µM (active); in assay [4] it was 0.199 µM (active); in assay [5], 0.152 µM (active); in assay [6] it was 0.139 µM (active). Also, the GI50 in assay [7] was 0.0252 µM (active); in assay [8], 0.0226 µM (active); in [9], 0.264 µM (active); in assay [10] it was 0.0561 µM (active); in [11] it was 0.305 µM (active); in assay [12], 0.0342 µM (active). Further, the GI50 is 0.15 µM (active) in assay [13]; 0.249 µM (active) in assay [14]; 0.123 µM (active) in assay [15]; 0.185 µM (active) in assay [16]; 0.148 µM (active) in [17]; 0.33 µM (active) in assay [18]. The figures for the GI50 in [19] and in assay [20] were 0.316 µM (active) and 0.0589 µM (active), respectively.

Consider `C#Cc1cccc(N2C(=O)CCC2=O)c1`, for which the GI50 is 18 µM (inactive) in [1]; 13.6 µM (inactive) in assay [2]; 9.08 µM (inactive) in assay [3]; > 10 µM (inactive) in [4]; 21.5 µM (inactive) in assay [5]; 2.65 µM (inactive) in assay [6]. Also, the GI50 is 17.3 µM (inactive) in assay [7]; 14.2 µM (inactive) in assay [8]; 17.5 µM (inactive) in assay [9]; 14.7 µM (inactive) in assay [10]; 4.17 µM (inactive) in [11]; 18.9 µM (inactive) in [12]. In addition, the GI50 was 2.49 µM (inactive) in [13]; 17.7 µM (inactive) in assay [14]; 15.6 µM (inactive) in assay [15]; 18.1 µM (inactive) in assay [16]; 19.9 µM (inactive) in [17]; 31.4 µM (inactive) in assay [18]. Moreover, the figures for the GI50 in assay [19] and in assay [20] were 13.6 µM (inactive) and 18.2 µM (inactive), respectively.

Turning to `COc1ccc2nc3c([N+](=O)[O-])ccc(NCCCN(C)C)c3c(N)c2c1`, the GI50 is 1.22 µM (inactive) in [1]; 1.81 µM (inactive) in assay [2]; 0.316 µM (active) in [3]; 1.78 µM (inactive) in assay [4]; 1.21 µM (inactive) in assay [5]; 0.41 µM (active) in assay [6]. Besides, the GI50 is 1.77 µM (inactive) in assay [7]; 1.82 µM (inactive) in assay [8]; 1.99 µM (inactive) in assay [9]; 1.99 µM (inactive) in assay [10]; 0.474 µM (active) in [11]; 1.49 µM (inactive) in assay [12]. Besides, the GI50 is 1.15 µM (inactive) in assay [13]; 1.45 µM (inactive) in assay [14]; 1.37 µM (inactive) in [15]; 1.62 µM (inactive) in assay [16]; 2.39 µM (inactive) in [17]; 2.01 µM (inactive) in [18]. Moreover, the GI50 in [19] was 1.66 µM (inactive); in assay [20] it was 1.82 µM (inactive).
